This is an account of results in US20240083892A1 (BISICHEM CO., LTD., priority 2021, published 2024).

For experiment [1], the target named is T1, RIPK1 (Homo sapiens, UniProt Q13546).
T1 construct: endogenous in cells; host or cells: HT-29 (KCLB 30038)
T1 sequence (Q13546 1-671): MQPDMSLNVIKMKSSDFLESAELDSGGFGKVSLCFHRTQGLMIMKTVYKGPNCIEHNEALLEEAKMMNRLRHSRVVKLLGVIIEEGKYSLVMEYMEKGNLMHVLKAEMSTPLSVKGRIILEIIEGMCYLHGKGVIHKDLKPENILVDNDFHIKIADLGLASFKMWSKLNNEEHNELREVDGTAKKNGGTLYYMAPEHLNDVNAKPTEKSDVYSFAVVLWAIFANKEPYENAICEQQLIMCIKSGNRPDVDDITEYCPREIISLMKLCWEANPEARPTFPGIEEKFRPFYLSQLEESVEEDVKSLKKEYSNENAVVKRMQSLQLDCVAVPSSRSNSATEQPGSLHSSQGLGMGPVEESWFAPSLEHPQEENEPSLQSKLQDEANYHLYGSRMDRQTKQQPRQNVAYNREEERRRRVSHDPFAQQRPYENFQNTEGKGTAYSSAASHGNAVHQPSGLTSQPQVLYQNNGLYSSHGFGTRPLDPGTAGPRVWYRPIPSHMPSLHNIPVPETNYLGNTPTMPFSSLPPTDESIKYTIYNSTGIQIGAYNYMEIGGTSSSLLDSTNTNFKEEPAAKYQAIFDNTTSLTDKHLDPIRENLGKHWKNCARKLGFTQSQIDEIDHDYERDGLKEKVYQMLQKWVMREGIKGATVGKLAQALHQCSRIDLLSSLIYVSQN
Kind of experiment: Immunoblotting of TNFα induced phospho-RIPK1 (ser 166) levels. It is filed as cell-based. The following applies: HMC3 cells; Z-VAD-FMK, human TNFα 20 ng/ml, SM-164 100 nM; 7 h, serum free media; read-out: Cell-base RIPK1 activity: phspho-RIPK1 (Ser166). How it is done:
(§1) Human colon carcinoma cell HT-29 (KCLB 30038), BV2 mouse microglial cell (cell was a kind gift from Dr. Nak-Yun Sung, Senior researcher at Korea Prime Pharmacy CO., LTD.) and human microglial cell HMC3 (ATCC® CRL-3304™). HT-29 cell was grown in Roswell Park Memorial Institute (RPMI) 1640, BV2 cell was grown in Dulbecco's Modified Eagle's Medium (DMEM) and HMC3 cell was grown in Minimum Essential Media Eagle (MEM) supplemented with 10% fetal bovine serum and 1% mixture of penicillin and streptomycin (Gibco). Cells were maintained at 37° C. in a humidified 5% CO2 atmosphere.
Biological activity of the compounds of RIPK1 inhibitor was determined by measuring their ability to inhibitor TNFα induced phospho-RIPK1 (ser 166) levels, phospho-RIPK3 levels, phospho-MLKL levels in HMC3 cells. Cells were pretreated with Z-VAD-FMK […]. After 30 min, human TNFα 20 ng/ml, SM-164 100 nM and RIPK1 inhibitor (0.1, 1, 10 nM) were treated for 7 h under serum free media. Cells were lysed with cold lysis buffer containing 25 mM HEPES pH 7.6, […] NaCl, 1% NP40, 1% sodium deoxycholate, 0.1% SDS, and protease inhibitor mixture (Bimake, Houston, USA) using sonicators. The cells were centrifuged at 15,000 rpm, 4° C. for 5 min. After protein concentration of the lysates (supernatants) was quantified using BCA assay (Thermo Fisher Scientific, Waltham, USA), lysates were mixed with LDS sample buffer and heating at […] for 10 min. (Invitrogen, California, USA). […] The membranes are placed in an image analyzer (Imagequant, LAS 500, GE Healthcare), connected to a computer which allows the image generation (software Image reader LAS 500).

In experiment [2] the target is T1, RIPK1. Briefly: Cell-based necroptosis assay for RIPK1 activity (cell viability by CCK-8). The following applies: HT-29 cells; Z-VAD-FMK 20 μM, human TNFα 10 ng/ml, SM-164 100 nM; 24 h; read-out: Cell-base RIPK1 activity: Necroptosis. How it is done: as §1
To measure the activity of RIPK1 inhibitor in necroptotic cells, HT-29 cells were treated by control DMSO, human TNFα (Peprotech, Rocky Hill, USA), SM-164 (Biovision, California, USA) and a pan-caspase inhibitor Z-VAD-FMK (Invivogen, San Diego, USA). Cells were pretreated with Z-VAD-FMK 20 μM. After 30 min, human TNFα 10 ng/ml, SM-164 100 nM and RIPK1 Inhibitor (0.0001, 0.001, 0.01, 0.02, 0.05, 0.1, 1, 10 uM) were treated for 24 h. Cell viability was measured by Cell Counting Kit 8 (CCK-8) (Dong-in, Seoul, Korea).

`Cc1nnc(COc2ccc3c(c2)N(C)C(=O)[C@@H](NC(=O)n2cc(Cc4cccc(F)c4)cn2)CO3)o1` [Example 64, (S)-4-(3-fluorobenzyl)-N-(5-methyl-7-((5-methyl-1,3,4-oxadiazol-2-yl)methoxy)-4-oxo-2,3,4,5-tetrahydrobenzo[b][1,4]oxazepin-3-yl)-1H-pyrazole-1-carboxamide]: the IC50 in experiment [1] and in experiment [2] was 10 to 50 nM in each case.
Turning to `CN1C(=O)[C@@H](NC(=O)n2cc(Cc3cccc(F)c3)cn2)COc2ccc(OCC(=O)n3cc(O[Si](C)(C)C(C)(C)C)cn3)cc21` [Example 54, (S)—N-(7-(2-(4-((tert-butyldimethylsilyl)oxy)-1H-pyrazol-1-yl)-2-oxoethoxy)-5-methyl-4-oxo-2,3,4,5-tetrahydrobenzo[b][1,4]oxazepin-3-yl)-4-(3-fluorobenzyl)-1H-pyrazole-1-carboxamide], the IC50 in experiment [1] and in experiment [2] was 10 to 50 nM each time.
As to `CN1C(=O)[C@@H](NC(=O)n2cc(Cc3cccc(F)c3)cn2)COc2ccc(OCC#CC3(O)CCC3)cc21` [Example 24, (S)-4-(3-fluorobenzyl)-N-(7-((3-(1-hydroxycyclobutyl)prop-2-yn-1-yl)oxy)-5-methyl-4-oxo-2,3,4,5-tetrahydrobenzo[b][1,4]oxazepin-3-yl)-1H-pyrazole-1-carboxamide], the IC50 in experiment [1] and in experiment [2] was under 10 nM in each case.
For `CN1C(=O)[C@@H](NC(=O)n2cc(Cc3cccc(F)c3)cn2)COc2ccc(OCC#CC(C)(C)O)cc21` [Example 22, (S)-4-(3-fluorobenzyl)-N-(7-((4-hydroxy-4-methylpent-2-yn-1-yl)oxy)-5-methyl-4-oxo-2,3,4,5-tetrahydrobenzo[b][1,4]oxazepin-3-yl)-1H-pyrazole-1-carboxamide], the IC50 in experiment [1] and in experiment [2] was under 10 nM throughout.
In the case of `Cc1noc(C)c1COc1ccc2c(c1)N(C)C(=O)[C@@H](NC(=O)n1cc(Cc3cccc(F)c3)cn1)CO2` [Example 67, (S)—N-(7-((3,5-dimethylisoxazol-4-yl)methoxy)-5-methyl-4-oxo-2,3,4,5-tetrahydrobenzo[b][1,4]oxazepin-3-yl)-4-(3-fluorobenzyl)-1H-pyrazole-1-carboxamide], the IC50 in experiment [1] and in experiment [2] was under 10 nM throughout.
For the compound `CN1C(=O)[C@@H](NC(=O)n2cc(Cc3cccc(F)c3)cn2)COc2ccc(OCC(C)(C)O)cc21` [Example 20, (S)-4-(3-fluorobenzyl)-N-(7-(2-hydroxy-2-methylpropoxy)-5-methyl-4-oxo-2,3,4,5-tetrahydrobenzo[b][1,4]oxazepin-3-yl)-1H-pyrazole-1-carboxamide], the IC50 in experiment [1] and in experiment [2] was under 10 nM throughout.
For `CN1C(=O)[C@@H](NC(=O)n2cc(Cc3cccc(F)c3)cn2)COc2ccc(OCc3ccc(F)nc3)cc21` [Example 59, (S)-4-(3-fluorobenzyl)-N-(7-((6-fluoropyridin-3-yl)methoxy)-5-methyl-4-oxo-2,3,4,5-tetrahydrobenzo[b][1,4]oxazepin-3-yl)-1H-pyrazole-1-carboxamide], the IC50 in experiment [1] and in experiment [2] was under 10 nM throughout.
With `CN1C(=O)[C@@H](NC(=O)n2cc(Cc3cccc(F)c3)cn2)COc2ccc(OCC(=O)N3CC[C@@H](O)C3)cc21` [Example 47, 4-(3-fluorobenzyl)-N—((S)-7-(2-((R)-3-hydroxypyrrolidin-1-yl)-2-oxoethoxy)-5-methyl-4-oxo-2,3,4,5-tetrahydrobenzo[b][1,4]oxazepin-3-yl)-1H-pyrazole-1-carboxamide], the IC50 in experiment [1] and in experiment [2] was under 10 nM each time.
On to `CN1C(=O)[C@@H](NC(=O)n2cc(Cc3cccc(F)c3)cn2)COc2ccc(OCC(=O)N3CCC(C(C)(C)O)CC3)cc21` [Example 43, (S)-4-(3-fluorobenzyl)-N-(7-(2-(4-(2-hydroxypropan-2-yl)piperidin-1-yl)-2-oxoethoxy)-5-methyl-4-oxo-2,3,4,5-tetrahydrobenzo[b][1,4]oxazepin-3-yl)-1H-pyrazole-1-carboxamide], for which the IC50 in experiment [1] and in experiment [2] was under 10 nM throughout.
In the case of `CN(Cc1ccncc1)C(=O)c1ccc2c(c1)N(C)C(=O)[C@@H](NC(=O)n1cc(Cc3cccc(F)c3)cn1)CO2` [Example 11], the IC50 in experiment [1] and in experiment [2] was under 10 nM each time.
With `CN1C(=O)[C@@H](NC(=O)n2cc(Cc3cccc(F)c3)cn2)COc2ccc(OCC(=O)N3CC(C)(O)C3)cc21` [Example 49, (S)-4-(3-fluorobenzyl)-N-(7-(2-(3-hydroxy-3-methylazetidin-1-yl)-2-oxoethoxy)-5-methyl-4-oxo-2,3,4,5-tetrahydrobenzo[b][1,4]oxazepin-3-yl)-1H-pyrazole-1-carboxamide], the IC50 in experiment [1] and in experiment [2] was under 10 nM throughout.
For `CN1C(=O)[C@@H](NC(=O)n2cc(Cc3cccc(F)c3)cn2)COc2ccc(OCCOCCO)cc21` [Example 19, (S)-4-(3-fluorobenzyl)-N-(7-(2-(2-hydroxyethoxy)ethoxy)-5-methyl-4-oxo-2,3,4,5-tetrahydrobenzo[b][1,4]oxazepin-3-yl)-1H-pyrazole-1-carboxamide], the IC50 in experiment [1] and in experiment [2] was under 10 nM throughout.
`CN1C(=O)[C@@H](NC(=O)n2cc(Cc3cccc(F)c3)cn2)COc2ccc(OCC#Cc3cccnc3)cc21` [Example 25, (S)-4-(3-fluorobenzyl)-N-(5-methyl-4-oxo-7-((3-(pyridin-3-yl)prop-2-yn-1-yl)oxy)-2,3,4,5-tetrahydrobenzo[b][1,4]oxazepin-3-yl)-1H-pyrazole-1-carboxamide]: the IC50 in experiment [1] and in experiment [2] was under 10 nM throughout.
`CN1C(=O)[C@@H](NC(=O)n2cc(Cc3cccc(F)c3)cn2)COc2ccc(OCC(=O)N3CCCCC3)cc21` [Example 36, (S)-4-(3-fluorobenzyl)-N-(5-methyl-4-oxo-7-(2-oxo-2-(piperidin-1-yl)ethoxy)-2,3,4,5-tetrahydrobenzo[b][1,4]oxazepin-3-yl)-1H-pyrazole-1-carboxamide]: the IC50 in experiment [1] and in experiment [2] was under 10 nM each time.
With `CN1C(=O)[C@@H](NC(=O)n2cc(Cc3cccc(F)c3)cn2)COc2ccc(OCC(O)c3ccccn3)cc21` (stereo partly drawn) [Example 69, 4-(3-fluorobenzyl)-N-((3S)-7-(2-hydroxy-2-(pyridin-2-yl)ethoxy)-5-methyl-4-oxo-2,3,4,5-tetrahydrobenzo[b][1,4]oxazepin-3-yl)-1H-pyrazole-1-carboxamide], the IC50 in experiment [1] and in experiment [2] was under 10 nM each time.
In the case of `CN1C(=O)[C@@H](NC(=O)n2cc(Cc3cccc(F)c3)cn2)COc2ccc(OCCCC3(O)CCC3)cc21` [Example 28, (S)-4-(3-fluorobenzyl)-N-(7-(3-(1-hydroxycyclobutyl)propoxy)-5-methyl-4-oxo-2,3,4,5-tetrahydrobenzo[b][1,4]oxazepin-3-yl)-1H-pyrazole-1-carboxamide], the IC50 in experiment [1] and in experiment [2] was under 10 nM each time.
